Structures can show the parent of a compound that is named as a salt.
Experiments:
[1] = test system: testosterone and phenylephrine induced benign prostate hyperplasia; assay: testosterone and phenylephrine induced benign prostate hyperplasia in rats (Example 1); type: in vivo, Male Wistar rats; conditions: for epithelial hyperplasia score, representative image of dorsolateral prostate: FIG. 2; for mean dorsolateral prostate hyperplasia scores compared to vehicle treatment: induced rats, intra-prostate days 15 and 29, axitinib, sorafenib, FIG. 3; for mean prostate weight (prostate weight/100 g body weight): day 42, FIG. 1
Experimental: Wistar and Sprague-Dawley strains of rats are susceptible to developing benign prostatic hyperplasia after treatment with exogenous testosterone and can serve as a model of hyperplasia induced by endogenous hormones, i.e., BPH in males and uterine fibroids (UF) in females. A study was conducted to determine the effects of test compounds and vehicle on testosterone and phenylephrine induced benign prostate hyperplasia in rats. Male Wistar rats were induced with testosterone (2 mg/kg) plus phenylephrine (5 mg/kg) administered daily by subcutaneous injection on days 1 through 28. Vehicle or the multikinase test compounds, axitinib (1%), sorafenib (1%), pirfenidone (2.5%) and riociguat (1%), were administered by intra-prostate injection (0.2 mL) on days 15 and 29. Animals were euthanized on day 42. Body weights were determined. Prostate glands were harvested and weighed.
Prostate weight/100 g body weight was determined for each treatment group (FIG. 1). […] Rather, only multikinase inhibitors with a certain inhibitory spectrum would work.
At necropsy, the dorsolateral and ventral lobes of the prostate were separated and cut into halves. The left halves were fixed in 10% neutral buffered formalin, sectioned, and stained with Hematoxylin and Eosin (H&E). Glandular hyperplasia was recognized as an increase in epithelial cells within normal appearing gland profiles, reflected by stratification of epithelial cells and increased presence of epithelial tufting and papillary projections (FIG. 2). Stromal changes were examined microscopically. These changes included inflammation and tissue fibroplasia. Each section was given a severity score ranging from 0 (not present) through 5 (severe).

TGF beta mRNA expression = TGF beta mRNA expression in rabbit dermal wound model (Example 5); type: in vivo, New Zealand White rabbits; conditions: 1% intradermal days 15 and 29; Day 42; FIG. 10
Experimental: (§1) Test compounds were examined in full-thickness dermal wounds in rabbits. Seven male New Zealand White rabbits, ranging in body weight from 3.03 to 3.40 kg were used in this study. Four wounds were placed on the ventral surface of both ears using an 8 mm skin punch biopsy. Axitinib (1.0%), nintedanib (1.0%), lenvatinib (1.0%), sorafenib (1.0%) and sunitinib (1.0%) were administered by intradermal or intralesional injection on days 15 and 29 following surgery. Animals were euthanized on Day 42 and trauma sites were harvested and divided in half. One half was preserved in formalin for histological examination and the other half frozen for TGF beta analysis.
TGF beta mRNA expression in treated trauma samples was compared to expression in untreated samples. In general, TGF beta expression in treated samples was lower relative to untreated trauma samples.

[2] = test system: suture induced ocular fibrosis; assay: suture induced ocular fibrosis model in rabbits (Example 4); type: in vivo
Experimental: A study was conducted to determine the potential beneficial effects of topical administration of test compounds and vehicle in a suture induced ocular fibrosis model in rabbits. Sutures were placed intrastromally, under a microscope, in the cornea of rabbits. In each eye, one 9.0 silk suture was placed, in a vertical position, temporal to the center of the cornea and a second suture was placed nasal to the corneal center. Each suture had two stromal incursions approximately 2 mm from the limbus. Test compounds having a certain spectrum of multikinase inhibition activities or vehicle were topically instilled (35 μL/eye) in the eyes three times daily for 10 days following the day of surgery. The treatment groups include vehicle, axitinib (0.3%), nintedanib (0.3%), pirfenidone (1%), riociguat (0.3%), sorafenib (0.3%) and lenvatinib (0.3%). Six left eyes were used per treatment group.
During the in-life phase, gross ocular observations of very slight to moderate conjunctival congestion and swelling were similar among groups, including the vehicle control. The animals were sacrificed on Day 11 and eyes enucleated and dissected for histopathological evaluation.

[3] = test system: TGF beta 1 protein levels; assay: TGF beta 1 protein level (ELISA) in pig linear incision wound model (Example 6); type: in vivo, Gottingen minipigs; conditions: 16 mg per wound site intradermal; Days 4, 7 and 9; FIG. 11
Experimental: Full-thickness linear incision wounds were created in Gottingen minipigs on Day 1. 10 wounds approximately 3 cm in length and spaced at least 5 cm apart were created on the dorsal surface of the animals, perpendicular to the spine. Test agents included nintedanib (2%), lenvatinib (2%), sorafenib (1%), axitinib (2%) and vehicle control. Test agents were administered by intradermal injection immediately after wound creation. The dose of nintedanib, lenvatinib, sorafenib, or axitinib was 16 mg per wound site. Three minipigs were dosed in a similar manner. One minipig was sacrificed on Day 4, one on Day 7, and one on Day 9.
At the time of sacrifice, two dermal punch biopsies (4 mm) from each side of the wound sites were collected. Two biopsies were flash frozen in liquid nitrogen and stored at −80° C. prior to processing by protein extraction and ELISA (enzyme-linked immunosorbent assay) analysis. TGF beta protein levels were measured on Days 4, 7 and 9.

[4] = test system: full-thickness dermal wounds; assay: full-thickness dermal wounds in rabbit ear, histopathology (Example 5); type: in vivo, New Zealand White rabbits; design: average total score of test wounds lower than untreated/control wounds by / Neovascularization (histopathology score, treated mean) / Fibrosis/Collagen (histopathology score, treated mean) / Reepithelialization (histopathology score, treated mean) / Total Score (histopathology, treated mean): scale not given here; conditions: for Fibrosis/Collagen (histopathology score, treated mean) / Neovascularization (histopathology score, treated mean) / Reepithelialization (histopathology score, treated mean) / Total Score (histopathology, treated mean): 1% intradermal dosing days 15 and 29, Day 42
Experimental: as §1, with “analysis. Tissue H&E staining was evaluated semi-quantitatively for inflammation and neovascularization. Tissue fibrosis and collagen organization were evaluated by Mason's trichrome staining. Scores for four intradermal sites receiving test articles were averaged for each rabbit. Most scar tissues were composed of neovascularization, fibroblast hyperplasia, collagen disorganization and re-epithelialization.” for “analysis.”

[5] = test system: testosterone and phenylephrine induced benign prostate hyperplasia; assay: testosterone and phenylephrine induced benign prostate hyperplasia in rats (Example 3); type: in vivo, Male Wistar rats; conditions: for epithelial (glandular) hyperplasia score, dorsolateral prostate, representative image: grade 0 (not present) to 5 (severe), FIG. 4
Experimental: This study was conducted to determine the effects of multikinase inhibitors and vehicle on testosterone and phenylephrine induced benign prostate hyperplasia in rats. Male Wistar rats were induced with testosterone (2 mg/kg) plus phenylephrine (5 mg/kg) administered daily by subcutaneous injection on days 5 through 32. Vehicle or test compounds (all 1% w/v), nintedanib, sunitinib or lenvatinib and doxazosin mesylate, were administered by intra-prostate injection (0.4 ml) in dorsolateral and ventral lobes on days 1 and 18. Animals were euthanized on day 32.
At necropsy, the ventral and dorsolateral lobes of the prostate were separated and then cut into halves. The left halves were fixed in 10% neutral buffered formalin, sectioned, and stained with Hematoxylin and Eosin (H&E). Histological changes in these sections were scored. Epithelial hyperplasia was recognized as an increase in epithelial cells within normal-appearing gland profiles, primarily reflected by stratification of epithelial cells and increased presence of epithelial tufting and papillary projections. A severity grade of 0 (not present) through 5 (severe) was assigned to each sample.

[6] = TE+PE induced rats, axitinib 1%, sorafenib 1%, pirfenidone 2.5%, severity score 0 (not present) to 5 (severe), induced vehicle group score=2
[7] = 1% intradermal, rabbit ear wound
[8] = TE+PE induced rats, intra-prostate 0.4 ml days 1 and 18, day 32, induced vehicle score=4

SMILES	epithelial hyperplasia score, representative image of dorsolateral prostate [1, 6]	mean dorsolateral prostate hyperplasia scores compared to vehicle treatment ([1]; riociguat 1%, pirfenidone 2.5%)	Fibrosis/Collagen (histopathology score, treated mean) ([4]; rabbit ear wound)	Neovascularization (histopathology score, treated mean) ([4]; rabbit ear wound)	Reepithelialization (histopathology score, treated mean) ([4]; rabbit ear wound)	Total Score (histopathology, treated mean) ([4]; rabbit ear wound)	epithelial (glandular) hyperplasia score, dorsolateral prostate, representative image [5, 8]	further results
Cc1ccc(=O)n(-c2ccccc2)c1 [pirfenidone]	1	demonstrated a decrease in hyperplasia scores	–	–	–	–	–	–
COC(=O)N(C)c1c(N)nc(-c2nn(Cc3ccccc3F)c3ncccc23)nc1N [riociguat]	–	demonstrated a decrease in hyperplasia scores	–	–	–	–	–	epithelial hyperplasia score, representative image of dorsolateral prostate ([1]; TE induced rat, riociguat 1%, severity score 0 to 5, TE-induced group 6 score=2): 1; mean prostate weight (prostate weight/100 g body weight) ([1]; TE induced rats, riociguat 1% intra-prostate days 15 and 29, compared to group 6): resulted in a reduction in the mean prostate weight
CNC(=O)c1cc(Oc2ccc(NC(=O)Nc3ccc(Cl)c(C(F)(F)F)c3)cc2)ccn1 [sorafenib]	2	did not lead to reduction in hyperplasia	2.5	3	0.3	5.8	–	mean folds of TGF beta mRNA expression vs untreated trauma samples (TGF beta mRNA expression): do not show mean TGF beta expression levels significantly different from the untreated trauma samples; areas of neovascularization on the corneal surface ([2]; 0.3% topical 35 μL/eye three times daily for 10 days, FIG. 8): efficacious in reducing the areas of neovascularization; fibroplasia and/or collagen density (histological staining) ([2]; 0.3% topical three times daily for 10 days, Day 11, FIG. 9): little or no effect on fibroplasia or collagen formation; alpha SMA staining (immunohistochemical analysis) ([2]; 0.3% topical three times daily for 10 days, relative to vehicle, FIG. 9): no effect on alpha SMA relative to vehicle treatment; TGF beta 1 protein levels in wound [3]: much less effective; angiogenesis and fibrosis at treated trauma sites (histopathology summary) [4, 7]: do not show any reduction in angiogenesis and fibrosis; fibrosis compared with control wound sites [4, 7]: similar, or increased fibrosis compared to control sites; neovascularization compared with untreated wounds [4, 7]: slightly increased neovascularization; scar formation overall compared with control sites [4, 7]: does not appear to have reduced scar formation; mean prostate weight (prostate weight/100 g body weight) ([1]; TE+PE induced rats, 1% test article, intra-prostate 0.2 mL days 15 and 29, compared to vehicle-treated group 1): did not show a reduction in the mean prostate weight
CCN(CC)CCNC(=O)c1c(C)[nH]c(/C=C2\C(=O)Nc3ccc(F)cc32)c1C [sunitinib]	–	–	3.7	4	0	7.7	3	epithelial (glandular) hyperplasia score, ventral prostate, representative image ([5]; 768 h): 3
COc1cc2nc(N3CCN(C(=O)C4COc5ccccc5O4)CC3)nc(N)c2cc1OC (centres unmarked) [doxazosin, doxazosin mesylate]	–	–	–	–	–	–	3	epithelial (glandular) hyperplasia score, ventral prostate, representative image ([5]; TE+PE induced rats, intra-prostate 0.4 ml days 1 and 18, day 32, grade 0 to 5, induced vehicle score=4, FIG. 5): 3
CNC(=O)c1ccccc1Sc1ccc2c(/C=C/c3ccccn3)n[nH]c2c1 [axitinib]	1	–	3.3	1	0.3	4.6	–	average total score of test wounds lower than untreated/control wounds by ([4]; 1% intradermal, difference treated vs control): 1.4
